pIC50: −log10 of the molar value. Active and inactive are the calls of the source. The rule behind the calls is not given here.
Legend:
ECa-109 cell line = assay: Cytotoxicity against human Eca-109 cells assessed as reduction in cell viability incubated for 72 hrs by MTT assay; type: functional, cell-based; details: ECa-109, 72 h
[1] = AUC (0 to t) in Sprague-Dawley rat at 20 mg/kg, ip measured for 0.03 to 24 hrs by UPLC-MS analysis; type: ADME, organism-based; design: time lower 0.03 hrs, dose 20 mg/kg, time upper 24 hrs, route ip; details: in vivo
[2] = Tmax in Sprague-Dawley rat at 20 mg/kg, ip measured for 0.03 to 24 hrs by UPLC-MS analysis; type: ADME, organism-based; details: in vivo, time 0.03-24 hrs
[3] = Cmax in Sprague-Dawley rat at 20 mg/kg, ip measured for 0.03 to 24 hrs by UPLC-MS analysis; type: ADME, organism-based; design: time lower 0.03 hrs, dose 20 mg/kg, time upper 24 hrs, route ip; details: in vivo
[4] = Toxicity in ICR mouse assessed as change in lymphocyte count at 100 mg/kg, ip qd (reference value: 3.0 10^9/L); type: organism-based; details: in vivo
[5] = Toxicity in ICR mouse assessed as change in neutrophile granulocytes level at 100 mg/kg, ip qd (reference value: 0.9 10^9/L); type: organism-based; details: in vivo
[6] = Toxicity in ICR mouse assessed as change in lymphocyte level at 100 mg/kg, ip qd (reference value: 75.2 %); type: organism-based; details: in vivo
[7] = Toxicity in ICR mouse assessed as change in neutrophile granulocyte level at 100 mg/kg, ip qd (reference value: 21.6 %); type: organism-based; details: in vivo
[8] = Toxicity in ICR mouse assessed as change in red blood cell count at 100 mg/kg, ip qd (reference value: 7.05 10^12/L); type: organism-based; details: in vivo
[9] = Toxicity in ICR mouse assessed as change in hemoglobin level at 100 mg/kg, ip qd (reference value: 124 g/L); type: organism-based; details: in vivo
[10] = Toxicity in ICR mouse assessed as change in mean platelet volume at 100 mg/kg, ip qd (reference value: 5.6 fL); type: organism-based; details: in vivo
[11] = Toxicity in ICR mouse assessed as change in platelet distribution width at 100 mg/kg, ip qd (reference value: 16.7); type: organism-based; details: in vivo
Bel-7402 [12] = assay: Cytotoxicity against human Bel-7402 cells assessed as inhibition rate at 5 uM by MTT assay; type: functional, cell-based; details: time 72.0 hrs, TDE = time-dependent effect
Bel-7402 [13] = assay: Inhibition of cell proliferation in human Bel-7402 cells assessed as inhibition of colony formation incubated for 10 days by crystal violet based plate clone formation assay; type: functional; details: dose <= 2.0 µM, time 10.0 day, DDE = dose-dependent effect
Bel-7402 [14] = assay: Induction of apoptosis in human Bel-7402 cells assessed as viable cells at 0.313 uM incubated for 24 hrs by Annexin V and dead cell assay kit (reference value: 91.00%); type: functional; details: read-out: Activity
Bel-7402 [15] = assay: Induction of apoptosis in human Bel-7402 cells assessed as dead cells at 0.625 uM incubated for 24 hrs by Annexin V and dead cell assay kit (reference value: 0.80 %); type: functional
Bel-7402 [16] = assay: Induction of apoptosis in human Bel-7402 cells assessed as early apoptotic cells at 1.25 uM incubated for 24 hrs by Annexin V and dead cell assay kit (reference value: 3.75 %); type: functional
Bel-7402 [17] = assay: Induction of apoptosis in human Bel-7402 cells assessed as early apoptotic cells at 2.5 uM incubated for 24 hrs by Annexin V and dead cell assay kit (reference value: 3.75 %); type: functional
Bel-7402 [18] = assay: Induction of apoptosis in human Bel-7402 cells assessed as early apoptotic cells at 5 uM incubated for 24 hrs by Annexin V and dead cell assay kit (reference value: 3.75 %); type: functional
Bel-7402 [19] = assay: Induction of apoptosis in human Bel-7402 cells assessed as late apoptotic cells at 5 uM incubated for 24 hrs by Annexin V and dead cell assay kit (reference value: 4.45 %); type: functional
Bel-7402 [20] = assay: Induction of apoptosis in human Bel-7402 cells assessed as dead cells at 5 uM incubated for 24 hrs by Annexin V and dead cell assay kit (reference value: 0.80 %); type: functional
Bel-7402 [21] = assay: Effect on ERK signalling pathway in human Bel-7402 cells assessed as increase in phosphorylated-ERK level upto 2.5 uM incubated for 24 hrs by Western blot analysis; type: functional, cell-based
Bel-7402 [22] = assay: Antitumor activity against human Bel-7402 cells xenografted in BALB/c nude mouse assessed as tumor growth inhibition at 20 mg/kg, ip qd measured every 2 days for 14 days relative to control; type: functional; details: Bel-7402, 336 h, time 14 day, read-out: TGI
[23] = Toxicity in BALB/c nude mouse xenografted with human Bel-7402 cells assessed as change in body weight at 10 to 20 mg/kg, ip bid measured every 2 days for 14 days; type: organism-based; details: in vivo, 336 h, dose 10-20 mg/kg, time 14 day
[24] = Chronic toxicity in ICR mouse assessed as effect on heart morphology at 100 mg/kg, ip qd measured after 26 days by H and E staining method; type: organism-based; details: in vivo, 624 h, time 26 day
[25] = Chronic toxicity in ICR mouse assessed as effect on liver morphology at 100 mg/kg, ip qd measured after 26 days by H and E staining method; type: organism-based; details: in vivo, 624 h, time 26 day
[26] = Chronic toxicity in ICR mouse assessed as effect on spleen morphology at 100 mg/kg, ip qd measured after 26 days by H and E staining method; type: organism-based; details: in vivo, 624 h, time 26 day
Bel-7402 [27] = assay: Induction of AKT degradation in human Bel-7402 cells at 2.5 uM incubated for 24 hrs in presence of Z-vad-fmk by Western blot analysis; type: cell-based
Bel-7402 [28] = assay: Upregulation of total protein ubiquitination level in human Bel-7402 cells at 2.5 uM by Western blot analysis; type: functional, cell-based; details: time <= 12.0 hrs, TDE = time-dependent effect
[29] = Drug elimination in mouse bearing tumor measured after 24 hr by ICG dye based fluorescence imaging; type: ADME; details: in vivo
[30] = Biodistribution in liver of mouse bearing tumor measured after 24 hr by ICG dye based fluorescence imaging; type: ADME, organism-based; details: in vivo
[31] = Biodistribution in lung of mouse bearing tumor measured after 24 hr by ICG dye based fluorescence imaging; type: ADME, organism-based; details: in vivo
[32] = Toxicity in BALB/c nude mouse xenografted with Bel-7402 cells assessed as behavioural change at 20 mg/kg, ip qd; type: organism-based; details: in vivo
[33] = Acute toxicity in ICR mouse assessed as body weight change at 100 to 500 mg/kg, ip; type: organism-based; details: in vivo, dose 100-500 mg/kg
HeLa = assay: Cytotoxicity against human HeLa cells assessed as reduction in cell viability incubated for 72 hrs by MTT assay; type: functional, cell-based
Bel-7402 [34] = assay: Induction of apoptosis in human Bel-7402 cells assessed as late apoptotic cells at 2.5 uM incubated for 24 hrs by Annexin V and Dead cell kit assay (reference value: 3.85 %); type: functional
Bel-7402 [35] = assay: Induction of apoptosis in human Bel-7402 cells assessed as viable cells at 2.5 uM incubated for 24 hrs in presence of U0126 by Annexin V and Dead cell kit assay (reference value: 90.82 %); type: functional; details: read-out: Activity
Bel-7402 [36] = assay: Induction of apoptosis in human Bel-7402 cells assessed as necrotic cells at 2.5 uM incubated for 24 hrs in presence of U0126 by Annexin V and Dead cell kit assay (reference value: 1.6 %); type: functional

CC[C@H](C)/C=C(C)/C=C/C1=CC2=C(Cl)C(=O)[C@](C)(O)C(=O)C2=CN1Cc1ccc(OC(F)(F)F)cc1
pIC50 (ECa-109 cell line): 5.94 | AUC(0-t) [1]: 29700 ng·h/mL | Tmax [2]: 45 min | Cmax [3]: 5590 ng/mL | Activity [4]: 1.7 10^9/L | Activity [5]: 1.4 10^9/L | Activity [6]: 50.3% | Activity [7]: 41.6% | Activity [8]: 8.37 10^12/L | Activity [9]: 141 g/L | Activity [10]: 6.7 fL | Activity [11]: 18.3 | Activity (Bel-7402 [12]): Tde | Activity (Bel-7402 [13]): Dde | viability at 0.313 µM (Bel-7402 [14]): 94.3% | Activity (Bel-7402 [15]): 0.6% | Activity (Bel-7402 [16]): 5.1% | Activity (Bel-7402 [17]): 16.55% | Activity (Bel-7402 [18]): 8.1% | Activity (Bel-7402 [19]): 75.55% | Activity (Bel-7402 [20]): 8.15% | Activity (Bel-7402 [21]): Active | inhibition in vivo at 20 mg/kg (Bel-7402 [22]): 18.3% | Activity [23]: Non-Toxic | Activity [24]: Non-Toxic | Activity [25]: Non-Toxic | Activity [26]: Non-Toxic | Activity (Bel-7402 [27]): Active | Activity (Bel-7402 [28]): Tde | Drug excretion [29]: Metabolite_Detected | Activity [30]: Active | Activity [31]: Active | Activity [32]: Non-Toxic | Activity [33]: Non-Toxic | pIC50 (HeLa): 5.56 | Activity (Bel-7402 [34]): 37.9% | viability at 2.5 µM (Bel-7402 [35]): 29.2% | Activity (Bel-7402 [36]): 7.75%

— ChEMBL document CHEMBL5154737, “Semisynthesis and biological evaluation of (+)-sclerotiorin derivatives as antitumor agents for the treatment of hepatocellular carcinoma” (Eur J Med Chem, 2022)
